From the NIST ThermoML archive (doi:10.1021/je7007632)

Columns and labels:
[1] = refractive index (Na D-line) (dimensionless); xn = mol fraction of the nth substance listed; conditions: 101 kPa, Liquid, Standard Abbe refractometry
[2] = refractive index (Na D-line) (dimensionless); conditions: 101.33 kPa, Liquid, Standard Abbe refractometry

NC=O [formamide] + CCCCO
refractive index, [1]
Conditions | x1 = 0.1093 | x1 = 0.2057 | x1 = 0.3138 | x1 = 0.4104 | x1 = 0.5115 | x1 = 0.6124 | x1 = 0.7081 | x1 = 0.8123 | x1 = 0.9086 | x1 = 1
293.15 K | 1.4023 | 1.4052 | 1.4086 | 1.4119 | 1.4158 | 1.4203 | 1.4252 | 1.4316 | 1.4389 | 1.4475
298.15 K | 1.4003 | 1.4032 | 1.4067 | 1.4101 | 1.4141 | 1.4187 | 1.4238 | 1.4303 | 1.4378 | 1.4467
303.15 K | 1.3983 | 1.4012 | 1.4048 | 1.4083 | 1.4124 | 1.4171 | 1.4223 | 1.429 | 1.4367 | 1.4459
308.15 K | 1.3963 | 1.3992 | 1.4029 | 1.4065 | 1.4107 | 1.4155 | 1.4208 | 1.4277 | 1.4357 | 1.4451
313.15 K | 1.3943 | 1.3973 | 1.4011 | 1.4047 | 1.409 | 1.4139 | 1.4194 | 1.4264 | 1.4345 | 1.4442
318.15 K | 1.3923 | 1.3954 | 1.3992 | 1.4029 | 1.4073 | 1.4123 | 1.4179 | 1.4251 | 1.4334 | 1.4433

NC=O [formamide]
[2]
Conditions | refractive index
293.15 K | 1.4475
298.15 K | 1.4467
303.15 K | 1.4459
308.15 K | 1.4451
313.15 K | 1.4442
318.15 K | 1.4433

CCC(C)O (centres undefined) [butan-2-ol] + NC=O
[1], x2 = 0
Conditions | refractive index
293.15 K | 1.3972
298.15 K | 1.3951
303.15 K | 1.3931
308.15 K | 1.3911
313.15 K | 1.3891
318.15 K | 1.3871

CC(O)CCO (centres undefined) [1,3-butanediol]
[2]
Conditions | refractive index
293.15 K | 1.4412
298.15 K | 1.4391
303.15 K | 1.437
308.15 K | 1.4349
313.15 K | 1.4329
318.15 K | 1.4308

OCCCCO [1,4-butanediol] + NC=O
refractive index, [1]
Conditions | x2 = 0 | x2 = 0.1052 | x2 = 0.1988 | x2 = 0.3041 | x2 = 0.4002 | x2 = 0.5009 | x2 = 0.6022 | x2 = 0.6992 | x2 = 0.8051 | x2 = 0.905
293.15 K | 1.4451 | 1.4445 | 1.444 | 1.4437 | 1.4436 | 1.4437 | 1.444 | 1.4445 | 1.4452 | 1.4463
298.15 K | 1.4431 | 1.4425 | 1.442 | 1.4418 | 1.4418 | 1.442 | 1.4424 | 1.4431 | 1.4439 | 1.4452
303.15 K | 1.4411 | 1.4405 | 1.44 | 1.4399 | 1.44 | 1.4403 | 1.4408 | 1.4416 | 1.4426 | 1.4441
308.15 K | 1.4391 | 1.4385 | 1.438 | 1.438 | 1.4382 | 1.4386 | 1.4392 | 1.4401 | 1.4413 | 1.443
313.15 K | 1.4372 | 1.4365 | 1.4361 | 1.4361 | 1.4364 | 1.4369 | 1.4376 | 1.4386 | 1.44 | 1.4419
318.15 K | 1.4352 | 1.4345 | 1.4341 | 1.4342 | 1.4345 | 1.4351 | 1.4359 | 1.437 | 1.4386 | 1.4407

CC(O)CCO (centres undefined) [1,3-butanediol] + NC=O
refractive index, [1]
Conditions | x2 = 0 | x2 = 0.1061 | x2 = 0.2004 | x2 = 0.3068 | x2 = 0.4026 | x2 = 0.5033 | x2 = 0.6046 | x2 = 0.7013 | x2 = 0.8073 | x2 = 0.9058
293.15 K | 1.4412 | 1.441 | 1.4409 | 1.4411 | 1.4414 | 1.4419 | 1.4425 | 1.4434 | 1.4445 | 1.4459
298.15 K | 1.4391 | 1.4389 | 1.4389 | 1.4391 | 1.4395 | 1.4401 | 1.4409 | 1.4419 | 1.4432 | 1.4448
303.15 K | 1.437 | 1.4368 | 1.4369 | 1.4372 | 1.4377 | 1.4384 | 1.4393 | 1.4404 | 1.4419 | 1.4437
308.15 K | 1.4349 | 1.4348 | 1.4349 | 1.4352 | 1.4358 | 1.4366 | 1.4377 | 1.4389 | 1.4406 | 1.4427
313.15 K | 1.4329 | 1.4328 | 1.4329 | 1.4333 | 1.434 | 1.4349 | 1.436 | 1.4374 | 1.4393 | 1.4415
318.15 K | 1.4308 | 1.4307 | 1.4309 | 1.4314 | 1.4321 | 1.4331 | 1.4344 | 1.4359 | 1.4379 | 1.4404

NC=O [formamide] + CC(O)CCO
[1], x1 = 1
Conditions | refractive index
293.15 K | 1.4475
298.15 K | 1.4467
303.15 K | 1.4459
308.15 K | 1.4451
313.15 K | 1.4442
318.15 K | 1.4433

OCCCCO [1,4-butanediol]
[2]
Conditions | refractive index
293.15 K | 1.4451
298.15 K | 1.4431
303.15 K | 1.4411
308.15 K | 1.4391
313.15 K | 1.4372
318.15 K | 1.4352

CCC(C)O (centres undefined) [butan-2-ol]
[2]
Conditions | refractive index
293.15 K | 1.3972
298.15 K | 1.3951
303.15 K | 1.3931
308.15 K | 1.3911
313.15 K | 1.3891
318.15 K | 1.3871

NC=O [formamide] + CCC(C)O
refractive index, [1]
Conditions | x1 = 0.1043 | x1 = 0.2043 | x1 = 0.3056 | x1 = 0.4083 | x1 = 0.5093 | x1 = 0.6063 | x1 = 0.7068 | x1 = 0.8042 | x1 = 0.9024 | x1 = 1
293.15 K | 1.3993 | 1.4017 | 1.4045 | 1.4079 | 1.4119 | 1.4165 | 1.4222 | 1.4289 | 1.4372 | 1.4475
298.15 K | 1.3973 | 1.3996 | 1.4025 | 1.4061 | 1.4102 | 1.4149 | 1.4207 | 1.4276 | 1.4361 | 1.4467
303.15 K | 1.3953 | 1.3977 | 1.4007 | 1.4043 | 1.4085 | 1.4133 | 1.4193 | 1.4263 | 1.435 | 1.4459
308.15 K | 1.3933 | 1.3958 | 1.3989 | 1.4026 | 1.4068 | 1.4118 | 1.4179 | 1.4251 | 1.434 | 1.4451
313.15 K | 1.3913 | 1.3939 | 1.397 | 1.4008 | 1.4051 | 1.4102 | 1.4164 | 1.4237 | 1.4328 | 1.4442
318.15 K | 1.3893 | 1.3919 | 1.3951 | 1.399 | 1.4034 | 1.4086 | 1.4149 | 1.4224 | 1.4317 | 1.4433

CCCCO [butan-1-ol]
[2]
Conditions | refractive index
293.15 K | 1.3994
298.15 K | 1.3974
303.15 K | 1.3953
308.15 K | 1.3933
313.15 K | 1.3913
318.15 K | 1.3893

CCCCO [butan-1-ol] + NC=O
[1], x2 = 0
Conditions | refractive index
293.15 K | 1.3994
298.15 K | 1.3974
303.15 K | 1.3953
308.15 K | 1.3933
313.15 K | 1.3913
318.15 K | 1.3893

NC=O [formamide] + OCCCCO
[1], x1 = 1
Conditions | refractive index
293.15 K | 1.4475
298.15 K | 1.4467
303.15 K | 1.4459
308.15 K | 1.4451
313.15 K | 1.4442
318.15 K | 1.4433
